The numbers were not newly measured in patent US20060069047A1, “Antibiotic conjugates” (priority 2002, published 2006), which cites them from elsewhere.

For one data set, the system named is PMN. The conditions noted are these: intracellular/extracellular concentration, PMN incubated 1 h.
For data set [1] the following is noted: in vivo.

Regarding `CC1(C)SC2C(NC(=O)Cc3ccccc3)C(=O)N2C1C(=O)O` (stereo not shown) [Penicillin G, 3,3-Dimethyl-7-oxo-6-phenylacetylamino-4-thia-1-aza-bicyclo[3.2.0]heptane-2-carboxylic acid], the I/E ratio in the data set with PMN is listed as 0.16.
Consider `CC[C@H]1OC(=O)[C@H](C)C(=O)[C@H](C)[C@@H](O[C@@H]2O[C@H](C)C[C@H](N(C)C)[C@H]2O)[C@](C)(OC)C[C@@H](C)C(=O)[C@H](C)[C@H]2N(CCCCn3cnc(-c4cccnc4)c3)C(=O)O[C@]12C` [Telithromycin], for which, in the data set on PMN, the I/E ratio is recorded as 197.
Regarding `COc1c(N2C[C@@H]3CCCN[C@@H]3C2)c(F)cc2c(=O)c(C(=O)O)cn(C3CC3)c12` [Moxifloxacin], the I/E ratio with PMN is 12.0.
In the case of `CC[C@H]1OC(=O)[C@H](C)[C@@H](O[C@H]2C[C@@](C)(OC)[C@@H](O)[C@H](C)O2)[C@H](C)[C@@H](O[C@@H]2O[C@H](C)C[C@H](N(C)C)[C@H]2O)[C@](C)(O)C[C@@H](C)CN(C)[C@H](C)[C@@H](O)[C@]1(C)O` [Azithromycin], in the data set on PMN, the I/E ratio is 517. Moreover, in the data set on phagocytic cells, the “cellular-to-extracellular concentration ratio (C/E)” value was approximately 500. Also, the “half-life (t1/2)” value in data set [1] was approximately 68 h.
For `C[C@H]1COc2c(N3CCN(C)CC3)c(F)cc3c(=O)c(C(=O)O)cn1c23` [Levofloxacin], in the data set on PMN, the I/E ratio was 4.8.
